The numbers were not newly measured in patent publication US6909021B2, “Method of extracting lutein from green plant materials” (Alfalfa America, Inc., priority 2003, dated 2005), which cites them from elsewhere.

Data set [1] relates to age-related macular degeneration (AMD). Particulars: dietary intake.
The conditions of data set [2]: water wash of green protein chloroplast fraction.

For the molecule `[Zn]` [zinc], the “effect on the rate of AMD” value in data set [1] is reported as “not seen to have an effect”.
As to `CC1=C(/C=C/C(C)=C/C=C/C(C)=C/C=C/C=C(C)/C=C/C=C(C)/C=C/C2=C(C)CCCC2(C)C)C(C)(C)CCC1` [Beta-carotene], the “effect on the rate of AMD” value in data set [1] is listed as “not seen to have an effect”.
Consider vitamin E, for which the “effect on the rate of AMD” value in data set [1] was “not seen to have an effect”.
For `CC1=C[C@H](O)CC(C)(C)[C@H]1/C=C/C(C)=C/C=C/C(C)=C/C=C/C=C(C)/C=C/C=C(C)/C=C/C1=C(C)C[C@@H](O)CC1(C)C` [Lutein], the solubility in water result in data set [2] is listed as “very little solubility”.
On to vitamin A, for which the “effect on the rate of AMD” value in data set [1] is reported as “not seen to have an effect”.
